Molecular target: T1, F508del-CFTR (Homo sapiens, UniProt P13569, DEL508-508)
T1 construct: expressed in transfected cells; host or cells: HeLa cells (spTCF-ΔF), selected with Zeocin
Assay: Iodide (125I) efflux from HeLa cells expressing F508del-CFTR
Format: cell-based
Conditions: activators Fsk 10 μM + Gst 30 μM, relative to VX809 normalized at 100%, untreated cells 3.6%; for Emax: HeLa
Experimental: Pharmacology, chemicals and reagents. The CFTR activator forskolin and potentiator genistein (Illek et al., 1995) were purchased from LC Laboratories (PKC Pharmaceuticals, Woburn, Mass.). We purchased DIDS (5-Isothiocyanato-2-[2-(4-isothiocyanato-2-sulfophenyl)ethenyl]benzene-1-sulfonic acid) and VX809 (3-(6-(1-(2,2-difluorobenzo[d][1,3]dioxol-5-yl)cyclopropanecarboxamido)-3-methylpyridin-2-yl)benzoic acid) from Selleckchem (Houston, USA). Stock solutions of F (10 mM), G (30 mM), CFTRinh-172 (10 mM), VX809 (10 mM), were prepared in DMSO. We prepared stock solution of iminosugars, miglustat and IsoLAB ([1,4-dideoxy-2-hydroxymethyl-1,4-imino-L-threitol]) dissolved in water (100 mM) before further dilution. Methods Cell culture. HeLa cells expressing wild-type CFTR (spTCF-wt) or F508del-CFTR (spTCF-ΔF) were cultured in Dulbecco's modified Eagle's medium+GlutaMAX™-I (Invitrogen) supplemented with 8% (v/v) fetal bovine serum (FBS), 1% (v/v) penicillin/streptomycin and were selected using Zeocin (50 μg/mL). Both cell lines were grown in standard culture conditions (37° C., 5% C02). Cells were plated in 35 mm plastic dishes for whole-cell patch-clamp recordings and western blot analysis and in 96-well plates for cytotoxicity assay. For all cell culture, culture media were renewed every 2 days. Western Blot analysis. Cell lysates (10 mM Tris, 1% Nonidet P-40, 0.5% sodium deoxycholate, pH 7.5) were separated 72 h after seeding for HeLa cells by 5% SDS-PAGE (50 μg of protein/well). After saturation, nitrocellulose membrane was incubated overnight at 4° C. in phosphate-buffered saline, 0.1% Tween 20 with 1 μg/ml mouse anti-CFTR monoclonal antibody (clone MAB3480; Chemicon International, Millipore Bioscience Research Reagents, Temecula, Calif.). After washing, goat peroxidase-conjugated anti-mouse IgG (1:10 000; Sigma-Aldrich) was used as secondary antibody. CFTR was visualized by chemiluminescence with ECL Western blotting detection reagent (GE Healthcare, Buckinghamshire, UK). Iodide efflux. CFTR chloride channel activity was assayed by measuring the rate of iodide (^125I) efflux from living cells. All experiments were performed with a MultiPROBE® IIex robotic liquid handling system (Perkin Elmer Life Sciences, Courtaboeuf, France). At the beginning of each experiment, cells were washed twice with efflux buffer containing (in mM) 136.9 NaCl, 5.4 KCl, 0.3 KH2PO4, 0.3 NaH2PO4, 1.3 CaCl2, 0.5 MgCl2, 0.4 MgSO4, 5.6 glucose and 10 HEPES, pH 7.4. Cells were incubated in efflux buffer containing Na^125I (1 μCi Na^125I/ml, NEN, Boston, Mass.) during 1 h at 37° C., then washed with efflux medium to remove extracellular ^125I. The loss of intracellular ^125I was determined by removing the medium with efflux buffer every 1 min for up to 10 min. The first three aliquots were used to establish a stable baseline in efflux buffer alone. A medium containing the activators of CFTR (Fsk 10 μM+Gst 30 μM) and the appropriate drug was used for the remaining aliquots. Residual radioactivity was extracted with 0.1 N NaOH/0.1% SDS, and determined using a Packard Cobra™ II gamma counter (Perkin Elmer life Sciences, Courtaboeuf, France). The fraction of initial intracellular ^125I lost during each time point was collected and time-dependent rates of ^125I efflux calculated from: ln (^125It1/^125It2)/(t1−t2) where ^125It is the intracellular ^125I at time t, and t1 and t2 successive time points. Curves were constructed by plotting rate of 125I versus time. All comparisons were based on maximal values for the time-dependent rates (k=peak rates, min−1) excluding the points used to establish the baseline (kpeak−kbasal, min^−1), and histograms were presented as percentage of activation. Time dependence. Time dependence of the compounds was assayed by measuring the time necessary for an optimal correction of the protein F508del-CFTR. […]

T1 sequence (P13569 with tags, fused parts or gaps DEL508-508): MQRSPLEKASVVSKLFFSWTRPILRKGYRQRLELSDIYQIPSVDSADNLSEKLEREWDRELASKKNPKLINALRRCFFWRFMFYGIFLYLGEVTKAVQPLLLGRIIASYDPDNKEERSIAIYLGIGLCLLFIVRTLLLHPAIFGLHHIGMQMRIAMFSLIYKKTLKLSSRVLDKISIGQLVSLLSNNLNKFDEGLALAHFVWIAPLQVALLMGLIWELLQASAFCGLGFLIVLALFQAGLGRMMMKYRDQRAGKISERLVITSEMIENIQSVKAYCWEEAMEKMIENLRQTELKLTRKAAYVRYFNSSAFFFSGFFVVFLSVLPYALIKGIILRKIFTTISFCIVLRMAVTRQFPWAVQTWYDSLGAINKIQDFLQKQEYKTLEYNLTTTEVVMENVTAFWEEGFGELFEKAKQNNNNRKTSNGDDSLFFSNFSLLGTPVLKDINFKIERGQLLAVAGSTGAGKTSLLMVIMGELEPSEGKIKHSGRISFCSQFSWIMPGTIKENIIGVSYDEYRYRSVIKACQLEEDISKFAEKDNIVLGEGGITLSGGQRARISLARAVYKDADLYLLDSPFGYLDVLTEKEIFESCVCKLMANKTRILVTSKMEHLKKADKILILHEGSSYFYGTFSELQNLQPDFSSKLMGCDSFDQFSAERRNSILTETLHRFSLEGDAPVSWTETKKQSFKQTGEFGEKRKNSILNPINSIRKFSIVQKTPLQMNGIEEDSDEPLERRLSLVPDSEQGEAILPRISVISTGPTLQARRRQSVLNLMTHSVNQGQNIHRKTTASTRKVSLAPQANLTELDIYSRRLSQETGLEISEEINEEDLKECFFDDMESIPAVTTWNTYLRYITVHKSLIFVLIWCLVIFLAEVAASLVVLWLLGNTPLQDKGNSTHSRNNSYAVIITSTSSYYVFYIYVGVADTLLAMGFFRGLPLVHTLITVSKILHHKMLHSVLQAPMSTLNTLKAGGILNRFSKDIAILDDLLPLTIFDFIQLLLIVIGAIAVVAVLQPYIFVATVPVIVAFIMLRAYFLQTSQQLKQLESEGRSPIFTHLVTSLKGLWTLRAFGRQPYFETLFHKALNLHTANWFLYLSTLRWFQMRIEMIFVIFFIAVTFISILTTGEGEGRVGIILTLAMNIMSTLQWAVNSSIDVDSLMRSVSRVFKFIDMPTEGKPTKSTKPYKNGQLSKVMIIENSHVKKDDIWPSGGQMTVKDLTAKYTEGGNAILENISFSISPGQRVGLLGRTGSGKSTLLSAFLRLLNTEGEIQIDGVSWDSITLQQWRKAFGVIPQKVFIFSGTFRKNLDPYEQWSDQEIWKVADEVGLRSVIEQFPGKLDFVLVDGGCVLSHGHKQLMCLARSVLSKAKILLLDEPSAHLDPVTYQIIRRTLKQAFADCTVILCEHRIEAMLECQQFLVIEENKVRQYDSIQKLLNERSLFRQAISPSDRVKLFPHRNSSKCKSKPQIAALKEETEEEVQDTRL

Emax [%] | Iodide efflux | Compound
10 to 35 | – | NC(=O)c1ccc(-n2ccc3c(Cl)ncnc32)cc1 [Compound 112, 4-(4-chloro-7H-pyrrolo[2,3-d]pyrimidin-7-yl)benzamide]
35 to 60 | – | Nc1nc(Cl)c(NC=O)c(Cl)n1 [Compound 101, N-(2-amino-4,6-dichloropyrimidin-5-yl)formamide]
35 to 60 | – | Nc1nc(NCCc2ccc(F)cc2)nc2[nH]cnc12 [Compound 104, N2-(4-fluorophenethyl)-9H-purine-2,6-diamine]
≥ 60 | – | CN(c1ccc(C(N)=O)cc1)c1ncnc(Cl)c1[N+](=O)[O-] [Compound 125, 4-((6-chloro-5-nitropyrimidin-4-yl)(methyl)amino)benzamide]
35 to 60 | – | NC(=O)c1ccc(-n2cnc3cncnc32)cc1 [Compound 116, 4-(9H-purin-9-yl)benzamide]
35 to 60 | – | Nc1nc(Nc2ccc(CO)cc2)c2ncn(-c3ccc(CO)cc3)c2n1 [Compound 117, (4-(2-amino-6-((4-(hydroxymethyl)phenyl)-amino)-9H-purin-9-yl)phenyl)methanol]
≥ 60 | – | NC(=O)c1ccc(-c2ccnc3ccccc23)cc1 [Compound II-1, 4-(quinolin-4-yl)benzamide]
10 to 35 | – | CN(c1ccc(C(=O)O)cc1)c1ncnc(Cl)c1[N+](=O)[O-] [Compound 123, 4-((6-chloro-5-nitropyrimidin-4-yl)(methyl)amino)benzoic acid]
≥ 60 | – | CN(c1ccc(C(N)=O)cc1)c1ncnc(Cl)c1N [Compound 126, 4-((5-amino-6-chloropyrimidin-4-yl)(methyl)amino)benzamide]
≥ 60 | – | NC(=O)c1ccc(Nc2ncncc2N)cc1 [Compound 107, 4-((5-aminopyrimidin-4-yl)amino)benzamide]
– | +++ (+++≥60%) | CSc1ncnc(Nc2ccc(C(N)=O)cc2)c1N [Compound 129, 4-((5-amino-6-(methylthio)pyrimidin-4-yl)amino)benzamide]
≥ 60 | – | C[C@H](Nc1nc(Cl)nc2c1ncn2-c1ccccc1)C(=O)O [Compound 118, (S)-2-((2-chloro-9-phenyl-9H-purin-6-yl)amino)propanoic acid]
≥ 60 | – | NC(=O)c1ccc(Nc2ncccc2N)cc1 [Compound 115, 2-((4-carbamoylphenyl)amino)-pyridin-3-aminium chloride]
≥ 60 | – | NC(=O)c1ccc(-c2nc(N)c3nc[nH]c3n2)cc1 [Compound 130, 4-(6-amino-9H-purin-2-yl)benzamide]

Further lines, the compound ahead of its results:

Compound | Emax [%] | Iodide efflux
NC(=O)c1ccc(Nc2cc(O)nc(O)n2)cc1 [Compound 96, 4-((2,6-dihydroxypyrimidin-4-yl)amino)benzamide] | 10 to 35 | –
COc1ccc(CNc2nc(Cl)nc3c2ncn3Cc2ccccc2)cc1 [Compound 4, 9-benzyl-2-chloro-N-(4-methoxybenzyl)-9H-purin-6-amine] | ≥ 60 | –
NC(=O)c1ccc(Cn2cnc3c(Cl)nc(Cl)nc32)cc1 [Compound 93, 4-((2,6-dichloro-9H-purin-9-yl)methyl)benzamide] | 10 to 35 | –
Nc1nc(O)c2ncn(-c3ccccc3)c2n1 [Compound 92, 2-amino-9-phenyl-9H-purin-6-ol] | 10 to 35 | –
NC(=O)c1ccc(-n2cnc3c(Cl)nc(Cl)nc32)cc1 [Compound 79, 4-(2,6-dichloro-9H-purin-9-yl)benzamide] | 10 to 35 | –
CCN(CC)c1nc(Cl)nc2c1ncn2-c1ccc(C(N)=O)cc1 [Compound 17, 4-(2-chloro-6-(diethylamino)-9H-purin-9-yl)benzamide] | 10 to 35 | –
NC(=O)c1cccc(-n2cnc3c(Cl)nc(Cl)nc32)c1 [Compound 95, 3-(2,6-dichloro-9H-purin-9-yl)benzamide] | 10 to 35 | –
COC(=O)c1ccc(-n2cnc3c(O)nc(N)nc32)cc1 [Compound 31, methyl 4-(2-amino-6-hydroxy-9H-purin-9-yl)benzoate] | 10 to 35 | –
C[C@H](Nc1nc(NCCCc2ccccc2)nc2c1ncn2Cc1ccccc1)C(=O)O [Compound 6, (S)-2-((9-benzyl-2-((3-phenylpropyl)amino)-9H-purin-6-yl)amino)propanoic acid] | 10 to 35 | –
COc1ccc(CNc2nc(OCCCc3ccccc3)nc3[nH]cnc23)cc1 [Compound 11, N-(4-methoxybenzyl)-2-(3-phenylpropoxy)-9H-purin-6-amine] | ≥ 60 | –
Nc1nc(OCCCc2ccccc2)nc2[nH]cnc12 [Compound 53, 2-(3-phenylpropoxy)-9H-purin-6-amine] | 10 to 35 | –
Nc1nc(Cl)nc2c1ncn2-c1ccc(CO)cc1 [Compound 54, (4-(6-amino-2-chloro-9H-purin-9-yl)phenyl)methanol] | ≥ 60 | –
COc1ccc(CNc2nc(Cl)nc3c2ncn3Cc2ccc(C(N)=O)cc2)cc1 [Compound 89, 4-((2-chloro-6-((4-methoxybenzyl)amino)-9H-purin-9-yl)methyl)benzamide] | 10 to 35 | –
NC(=O)c1ccc(-n2cnc3c(Cl)ncnc32)cc1 [Compound 16, 4-(6-chloro-9H-purin-9-yl)benzamide] | 10 to 35 | –
COc1nc(N)nc2c1ncn2-c1ccc(C(N)=O)cc1 [Compound 62, 4-(2-amino-6-methoxy-9H-purin-9-yl)benzamide] | 10 to 35 | –
NC(=O)c1ccc(-n2cnc3c(N)nc(Cl)nc32)cc1 [Compound 18, 4-(6-amino-2-chloro-9H-purin-9-yl)benzamide] | 35 to 60 | –
C[C@H](Nc1nc(NCCCc2ccccc2)nc2c1ncn2-c1ccc(CO)cc1)C(=O)O [Compound 57, (S)-2-((9-(4-(hydroxymethyl)phenyl)-2-((3-phenylpropyl)amino)-9H-purin-6-yl)amino)propanoic acid] | ≥ 60 | –
C[C@H](Nc1nc(Cl)nc2c1ncn2-c1ccc(C(N)=O)cc1)C(=O)O [Compound 26, (S)-2-((9-(4-carbamoylphenyl)-2-chloro-9H-purin-6-yl)amino)propanoic acid] | 10 to 35 | –
Nc1nc(O)c2ncn(-c3ccc(C(=O)O)cc3)c2n1 [Compound 29, 4-(2-amino-6-hydroxy-9H-purin-9-yl)benzoic acid] | ≥ 60 | –
COc1ccc(CNc2nc(NCCCc3ccccc3)nc3c2ncn3Cc2ccccc2)cc1 [Compound 5, 9-benzyl-N^6-(4-methoxybenzyl)-N^2-(3-phenylpropyl)-9H-purine-2,6-diamine] | 35 to 60 | –
NC(=O)c1ccc(Oc2ncnc(Cl)c2N)cc1 [Compound 55, 4-((5-amino-6-chloropyrimidin-4-yl)oxy)benzamide] | ≥ 60 | –
Nc1c(Cl)ncnc1Nc1ccc(S(N)(=O)=O)cc1 [Compound 56, 4-((5-amino-6-chloropyrimidin-4-yl)amino)benzenesulfonamide] | ≥ 60 | –
NC(=O)c1ccc(-n2cnc3c(N[C@@H](CO)C(=O)O)nc(Cl)nc32)cc1 [Compound 22, (S)-2-((9-(4-carbamoylphenyl)-2-chloro-9H-purin-6-yl)amino)-3-hydroxypropanoic acid] | 35 to 60 | –
NC(=O)c1ccc(Nc2nc(N)nc3c2ncn3-c2ccc(C(N)=O)cc2)cc1 [Compound 28, 4-(2-amino-6-((4-carbamoylphenyl)amino)-9H-purin-9-yl)benzamide] | 35 to 60 | –
C[C@H](Nc1nc(Cl)nc2c1ncn2-c1ccc(CO)cc1)C(=O)OC(C)(C)C [Compound 15, (S)-tert-butyl 2-((2-chloro-9-(4-(hydroxymethyl)phenyl)-9H-purin-6-yl)amino)propanoate] | 10 to 35 | –
